The target in assay [1] is T1, Substance-P receptor (Homo sapiens, UniProt P25103). The assay is described as follows: Concentration required for displacement of [125I]-labeled substance P from cloned hNK1 receptor expressed in CHO cells(*). In kind it is cell-based. (In general: Loss of bound radioactivity is the signal in a displacement assay; it reports binding, not function.)
Assay [2] deals with T1, Substance-P receptor. The assay is described as follows: Tested for displacement of [125I]-labeled substance P from cloned hNK1 receptor expressed in CHO cells at 100 nM. The class given is cell-based.
The target in assay [3] is T1, Substance-P receptor. Briefly: Tested for displacement of [125I]-labeled substance P from cloned hNK1 receptor expressed in CHO cells (*). The settings on record: concentration not given here. The class given is cell-based.
Assay [4] deals with Gerbillinae. The assay is described as follows: In vivo percent inhibition of gerbil foot-tapping after 3 mg/kg, iv administration prior to icv infusion of GR-73632 in vehicle-treated animals. In kind it is functional.
Assay [5] deals with Gerbillinae. The assay is described as follows: In vivo inhibitory dose against gerbil foot-tapping after iv administration prior to icv infusion of GR-73632 in vehicle-treated animals. The class given is functional. The settings on record: read-out: ID50 (the source's name).
Assay [6] concerns Gerbillinae. The assay is described as follows: In vivo inhibitory dose against gerbil foot-tapping after iv administration prior to icv infusion of GR-73632 for a duration of 5 min in vehicle-treated animals. The settings on record: read-out: ID50 (the source's name). The class given is functional.

This note sets out measurements from ChEMBL document CHEMBL1134265, “2-Aryl indole NK1 receptor antagonists: optimisation of the 2-aryl ring and the indole nitrogen substituent” (Bioorg Med Chem Lett, 2001).

As usually defined, the IC50 is the point on the concentration scale where inhibition reaches its midpoint. A high value points to a need for much substance. In general, inhibition refers to the change of the read-out against control, counted positive when it falls. A word on the inhibition in vivo: it is the relative decrease from the control value, in per cent. Low readings indicate a response near the control, high ones a response far below the control.

T1 sequence (P25103 whole entry): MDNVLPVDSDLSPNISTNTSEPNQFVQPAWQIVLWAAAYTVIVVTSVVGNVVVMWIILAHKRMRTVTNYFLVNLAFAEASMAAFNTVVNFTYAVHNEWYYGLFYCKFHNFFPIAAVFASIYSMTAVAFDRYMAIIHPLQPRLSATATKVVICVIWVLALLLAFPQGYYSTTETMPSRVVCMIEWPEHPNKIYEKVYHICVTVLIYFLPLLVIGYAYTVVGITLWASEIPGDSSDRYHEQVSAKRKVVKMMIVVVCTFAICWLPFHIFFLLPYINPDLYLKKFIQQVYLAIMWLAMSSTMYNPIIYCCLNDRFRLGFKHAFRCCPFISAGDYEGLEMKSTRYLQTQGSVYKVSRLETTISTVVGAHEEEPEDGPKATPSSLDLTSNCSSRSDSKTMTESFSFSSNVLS

Compound `COc1ccccc1N1CCN(C(=O)CCc2c(-c3ccc(C(F)(F)F)cc3)[nH]c3ccc(C)cc23)CC1` returned an IC50 in assay [1] of 0.44 nM.
In assay [1], `COc1ccccc1N1CCN(C(=O)CCc2c(-c3ccc(-c4ccccc4)cc3)[nH]c3ccc(C)cc23)CC1` returned an IC50 of 7.6 nM.
`COc1ccccc1N1CCN(C(=O)CCc2c(-c3ccccc3Br)[nH]c3ccc(C)cc23)CC1` gave an IC50 in assay [1] of 89 nM.
In turn, `Cn1c(-c2cccnc2)c(CCC(=O)N2CCC(O)(Cc3ccccc3)CC2)c2cc(Cl)ccc21` showed an IC50 in assay [1] of 0.92 nM.
For `COc1ccccc1N1CCN(C(=O)CCc2c(-c3ccc(Cl)cc3)n(C(C)C)c3ccc(Cl)cc23)CC1`, the half-inhibitory concentration (IC50) in assay [1] was found to be 5.2 nM.
On the same count and under the same terms, next, `Cn1c(-c2ccccn2)c(CCC(=O)N2CCC(O)(Cc3ccccc3)CC2)c2cc(Cl)ccc21`: 2.9 nM; `COc1ccccc1N1CCN(C(=O)CCc2c(-c3ccc(Cl)cc3)n(C)c3ccc(Cl)cc23)CC1`: 0.28 nM.
On the same count and under the same terms, next, `COc1ccccc1N1CCN(C(=O)CCc2c(-c3ccccc3)[nH]c3ccc(C)cc23)CC1`: 6.1 nM; `COc1ccccc1N1CCN(C(=O)CCc2c(-c3ccc(Cl)cc3)n(CC3CC3)c3ccc(Cl)cc23)CC1`: 103 nM.
`COc1ccccc1N1CCN(C(=O)CCc2c3n(c4ccc(C)cc24)Cc2ccccc2-3)CC1` displayed an inhibition in assay [2] of 55%.
In turn, `COc1ccccc1N1CCN(C(=O)CCc2c(-c3ccncc3)[nH]c3ccc(C)cc23)CC1` gave an inhibition in assay [3] of 58%.
`COC(=O)Cn1c(-c2ccc(Cl)cc2)c(CCC(=O)N2CCN(c3ccccc3OC)CC2)c2cc(Cl)ccc21` came in with an IC50 in assay [1] of 15 nM.
Regarding `COc1ccccc1N1CCN(C(=O)CCc2c[nH]c3ccc(C)cc23)CC1`, the inhibition in assay [3] turned out to be 18%.
Turning to `COc1ccc(-c2[nH]c3ccc(C)cc3c2CCC(=O)N2CCN(c3ccccc3OC)CC2)cc1`, in assay [1], the concentration for half-maximal inhibition (IC50) is 1.5 nM.
In the case of `COc1ccccc1N1CCN(C(=O)CCc2c(-c3ccc(C(F)(F)F)cc3)n(C)c3ccc(C)cc23)CC1`, the inhibition in vivo at 3 mg/kg in assay [4] amounted to 93%. The compound further yielded an IC50 in assay [1] of 0.14 nM.
`COc1ccccc1N1CCN(C(=O)CCc2c(-c3ccc(C(C)C)cc3)n(C)c3ccc(C)cc23)CC1` returned an inhibition in vivo at 3 mg/kg in assay [4] of 100%. In assay [1], the IC50 was 0.33 nM.
For `COc1ccccc1N1CCN(C(=O)CCc2c(-c3ccc(C(C)C)cc3)[nH]c3ccc(C)cc23)CC1` the same measures were 100% and 0.2 nM.
Consider `COc1ccccc1N1CCN(C(=O)CCc2c(-c3ccc(Cl)cc3)n(C)c3ccc(C)cc23)CC1`, for which testing at 3 mg/kg in assay [4] gave an inhibition in vivo of 100%. The same compound showed an IC50 in assay [1] of 0.11 nM.
On to `COc1ccccc1N1CCN(C(=O)CCc2c(-c3ccc(Br)cc3)[nH]c3ccc(C)cc23)CC1`, for which the inhibition in vivo at 3 mg/kg in assay [4] amounted to 46%.
As for `Cc1ccc(-c2c(CCC(=O)N3CCC(O)(Cc4ccccc4)CC3)c3cc(Cl)ccc3n2C)cn1`, the ED50 in assay [5] came out at 0.68 mg/kg. This compound displayed a concentration for half-maximal inhibition (IC50) in assay [1] of 0.12 nM.
`COc1ccccc1N1CCN(C(=O)CCc2c(-c3ccc(Cl)cc3)n(CCO)c3ccc(Cl)cc23)CC1` had an IC50 in assay [1] of 0.97 nM.
As for `COc1ccccc1N1CCN(C(=O)CCc2c(-c3ccc(Cl)cc3)[nH]c3ccc(C)cc23)CC1`, in assay [4], the inhibition in vivo at 3 mg/kg is 22%.
Compound `COc1ccccc1N1CCN(C(=O)CCc2c(-c3cccc(Br)c3)[nH]c3ccc(C)cc23)CC1` came in with an inhibition in assay [3] of 37%.
Take `COc1ccccc1-c1[nH]c2ccc(C)cc2c1CCC(=O)N1CCN(c2ccccc2OC)CC1`: the IC50 in assay [1] is 82 nM.
`COc1ccccc1N1CCN(C(=O)CCc2c(-c3ccc(Cl)cc3)n(Cc3ccccc3)c3ccc(Cl)cc23)CC1` had an IC50 in assay [1] of 96 nM.
Turning to `Cn1c(-c2ccc(C(F)(F)F)cn2)c(CCC(=O)N2CCC(O)(Cc3ccccc3)CC2)c2cc(Cl)ccc21`, the ED50 in assay [5] was 0.1 mg/kg. The IC50 in assay [1] is 0.12 nM.
As to `COc1ccccc1N1CCN(C(=O)CCc2c(-c3ccc(Br)cc3)n(C)c3ccc(C)cc23)CC1`, the inhibition in vivo at 3 mg/kg in assay [4] turned out to be 100%. In assay [6], the ED50 was found to be 0.5 mg/kg. Besides, in assay [1], the IC50 is 0.14 nM.
`COc1ccccc1N1CCN(C(=O)CCc2c(-c3ccc(C(C)(C)C)cc3)[nH]c3ccc(C)cc23)CC1` came in with an IC50 in assay [1] of 6.3 nM.
In turn, `COc1cccc(-c2[nH]c3ccc(C)cc3c2CCC(=O)N2CCN(c3ccccc3OC)CC2)c1` had an IC50 in assay [1] of 8 nM.
